The results in this text go back to patent US7872015B2, “Methods involving PDE4, compositions, and the screening thereof, for the treatment of degenerative ocular pathologies” (Exonhit Therapeutics SA, priority 2003, dated 2011).

In one data set the target is T1, PBR (Homo sapiens, UniProt P30536).
T1 construct: endogenous in cells; host or cells: HeLa cells
In words: Mitochondrial-specific rhodamine 1,2,3 fluorescence in HeLa cells expressing the PBR. Type of data set: cell-based. An excerpt:
The PBR is situated between the inner and outer mitochondrial membrane. It forms part of the transition pore complex, which participates in regulating mitochondrial flux by opening the mitochondrial pore. There exist molecules which display high affinity for PBR, particularly Ro5-4864 and PK11195.
By monitoring mitochondrial-specific fluorescence of rhodamine 1,2,3, the effects of PBR-specific ligands and those of etazolate could be followed.

A short description of data set [1]: Escalating single oral dose study in healthy male volunteers: tolerability. Format: in vivo, humans. To be noted: oral capsules, single doses 0.5-20 mg. As to the method: (§1) In this study, increasing doses of etazolate (0.5, 1, 2, 5, 10 and 20 mg) were administered orally in the form of 0.5 and 5 mg capsules to different and sequential groups of eight young healthy male volunteers. This was a single-center, double-blind study in which two of the eight subjects received a placebo.
(§2) The following parameters were evaluated: clinical tolerability (adverse effects, clinical signs, changes in blood pressure or heart rate), electrocardiographic tolerability (recording of the ECG) and biological tolerability (hematology and blood biochemistry, urinalysis) for 24 hours after dosing. The product was assayed in plasma at different times before and after administration in each subject (0.25-0.50-1.00-1.50-2.00-3.00-4.00-5.00-6.00-8.00-10.00-12.00 and 24.00 hours). The product was also assayed in urine collected before and after administration (4, 4-8,8-12 and 12-24 hours).

Data set [2] relates to cerebellar granular cells. The data set is described as follows: Excitotoxicity protection in primary cerebellar granular cells (MTT test). Format: cell-based, rat. To be noted: etazolate three hours before toxic agents, 6-hour incubation. On the procedure:
In this example, cerebellar granular neurons, cortical neurons and ventral spinal cord cells from rats were cultured according to methods known to those skilled in the art. Seven-day-old Wistar rats were decapitated and brains were dissected. The meninges were removed and the tissue was then cut into small pieces and trypsinized for 15 minutes at 37° C. Cells were dissociated by trituration, then placed in culture at a density of 300,000 cells per cm^2 in Eagle basic medium supplemented with 10% fetal calf serum and 2 mM glutamine. The next day, 10 μM ARA-C, an antimitotic agent, was added to prevent proliferation of glial cells. The cells were treated on day 9 of culture with the inhibitor compound etazolate, three hours before adding the toxic agents 50 μM kainate or 100 μM N-methyl-D-aspartate in the presence of 10 μM D-serine. Immediately before adding the toxic agents, 8-bromo-cAMP was added. All treatments were done at least in duplicate and in at least two different cultures. After a 6-hour incubation, toxicity was measured by the MTT test. The results were normalized to the untreated mean and analyzed statistically with a Wilcoxon test. The level of significance was p≦0.05. Toxicity was measured with the MTT test. […] Absorbance at 550 nm was measured and the percentage viability was calculated.
In general terms: Tetrazolium dyes change colour on reduction, which living cells bring about.

For data set [3], the system named is retinal explants from rd1 mice. In words: Retinal explant cultures from rd1 mice, histopathology of photoreceptors. Type of data set: cell-based. The note with it: 2 μM etazolate, versus untreated explants. On the procedure:
This example describes the effects of a PDE4 inhibitor on retina of rd1 mice, which are characterized by a loss of visual cells starting two weeks after birth. For each etazolate concentration (0.02 μM, 0.2 μM, 2 μM and 20 μM), six retinal explants from rd1 mice were cultured for 21 days. The culture was started on postnatal day 7 in medium free of bovine fetal serum but containing etazolate at the indicated concentration. Six retinal explants from the same animals were used as controls for the treated explants. In this case, the explants were grown in culture medium alone or in culture medium containing the vehicle used for etazolate. For both conditions (control and treatment), the culture medium was changed every two days. After 21 days of culture, the explants were fixed, sectioned and labelled for histopathologic studies. Explants from untreated rd1 mice (postnatal day 28) lost most of their photoreceptors in culture, and the presence of an increase in photoreceptors was then detected by counting the remaining photoreceptors.

The next data set relates to cortical neurons. In words: Excitotoxicity protection in primary cortical neurons (MTT test). The note with it: etazolate 1 hour before toxic agents, 6-hour incubation. Format: cell-based, rat. On the procedure:
(§3) In this example, cerebellar granular neurons, cortical neurons and ventral spinal cord cells from rats were cultured according to methods known to those skilled in the art.
Wistar rat embryos aged 16 days were removed and the cortex dissected. After trypsination at 37° C. for 25 minutes, the cells were dissociated by trituration, then seeded in minimum essential medium supplemented with 10% horse serum, 10% fetal calf serum and 2 mM glutamine, at a density of 300,000 cells per cm^2. After 4 days of culture, half the medium was replaced with minimum essential medium supplemented with 5% horse serum and 2 mM glutamine. The same day, the antimitotic 5-fluoro-2-deoxyuridine (10 μM) was added. After 7 and 11 days of culture, half the medium was replaced with conditioned medium composed of MEM supplemented with 5% horse serum and 2 mM glutamine; prior to use this medium was passed overnight on a layer of cortical astrocytes. On day 14, the cells were treated with the inhibitor compound etazolate, 1 hour before adding the toxic agents 50 μM kainate or 20 μM N-methyl-D-aspartate in the presence of 10 μM D-serine. […] After a 6-hour incubation, toxicity was measured by the MTT test. The results were normalized to the untreated mean and analyzed statistically with a Wilcoxon test. […]
(§4) Toxicity was measured with the MTT test. […] Absorbance at 550 nm was measured and the percentage viability was calculated.

Data set [4] is described as follows: Escalating single oral dose study in healthy male volunteers: plasma assays. Type of data set: in vivo. The note with it: humans, at high doses. On the procedure:
as §1, §2

In data set [5] the test system is ventral spinal cord cells. In words: Excitotoxicity protection in primary ventral spinal cord cells (MTT test). Format: cell-based, rat. To be noted: 100 μM NMDA + 10 μM D-serine, 3-hour incubation. On the procedure:
as §3
Cells were isolated from 14-day-old Wistar rat embryos. On arrival, gestating rats were sacrificed by carbon dioxide intoxication.
The chain of embryos was removed and placed in a dish containing PBS.
The spinal cord of each embryo was dissected and the ventral cord was separated from the dorsal cords. The ventral cords were then trypsinized at 37° C. for 20 minutes. Trypsinization was stopped by addition of Leibovitz 15 medium, 20% horse serum, supplement N2 (1×), 20% glucose (3.2 mg/ml), 7.5% bicarbonate (1.8 mg/ml) and 2 mM L-glutamine. The cells were dissociated by trituration. Clumps of tissue were removed and the dissociated cells were then quantified by trypan blue staining. The cells were seeded at 250,000 cells per cm^2 in neurobasal medium containing 2% horse serum, supplement B27 (1×), and 2 mM glutamine. […] After a 3-hour incubation with NMDA/D-serine as toxic agent and a 1-hour incubation with kainate, toxicity was measured by the MTT test. The results were normalized to the untreated mean and analyzed statistically with a Wilcoxon test with p<0.05.
as §4

T1 sequence (P30536 whole entry): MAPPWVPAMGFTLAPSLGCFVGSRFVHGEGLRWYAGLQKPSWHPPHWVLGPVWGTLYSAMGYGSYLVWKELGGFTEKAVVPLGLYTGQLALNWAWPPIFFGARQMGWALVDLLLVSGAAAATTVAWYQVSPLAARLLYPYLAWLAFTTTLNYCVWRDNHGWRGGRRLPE

Regarding `CCC(C)N(C)C(=O)c1cc2ccccc2c(-c2ccccc2Cl)n1` (stereo not shown) [PK11195], the “mitochondrial-specific fluorescence of rhodamine 1,2,3” value (shortened to “mitochondrial-specific fluorescence”) at PBR is given as “loss of fluorescence”.
As to `CN1C(=O)CN=C(c2ccc(Cl)cc2)c2cc(Cl)ccc21` [Ro5-4864], the “mitochondrial-specific fluorescence” value on PBR is given as “loss of fluorescence”.
Regarding `CCOC(=O)c1cnc2c(cnn2CC)c1NN=C(C)C` [etazolate], the side effects result in data set [1] was “did not cause any side effects”. Moreover, the “tolerability (clinical, electrocardiographic, biological)” value in data set [1] (24 hours after dosing) is reported as “well tolerated”. Besides, the “protective effect on kainate-induced toxicity” value turned out to be 57% in data set [2] (50 μM kainate) and 25% in the data set on cortical neurons (50 μM kainate). Further, the “protective effect on NMDA/serine-induced toxicity” value in data set [2] (100 μM N-methyl-D-aspartate + 10 μM D-serine) came out at 60%; with cortical neurons (20 μM N-methyl-D-aspartate + 10 μM D-serine) it was 33%; in data set [5] it was 36%. Also, the “preservation of photoreceptors (photoreceptor layer)” value in data set [3] (rd1 retinal explants cultured 21 days from postnatal day 7) was “much better preserved”. The “number of picnotic cells” value in data set [3] (rd1 retinal explants cultured 21 days) is recorded as “marked reduction”. Besides, the “mitochondrial-specific fluorescence” value at PBR is recorded as “induced the same loss of fluorescence as the PBR-specific ligands”. Besides, the “absorption (plasma assays)” value in data set [4] was “good”.
